Consider six compounds from ChEMBL document CHEMBL4196242, “Irpeksins A-E, 1,10- seco-Eburicane-Type Triterpenoids from the Medicinal Fungus Irpex lacteus and Their Anti-NO Activity” (J Nat Prod, 2018).

This test relates to RAW264.7. Nature of the test: Inhibition of LPS-induced nitric oxide production in mouse RAW264.7 cells after 18 hrs by Griess assay. Type of test: functional, cell-based. Particulars: RAW264.7, 18 h. (In general: Griess reagent forms a coloured azo dye with nitrite.)
Consider `CNC(=N)NCCC[C@H](N)C(=O)O` [TILARGININE], for which half-maximal inhibition (IC50) was put at 32.9 µM.

`CC1=C(C)[C@@]2(C[C@@H](C)[C@H]3[C@H](C[C@@]4(C)c5ccc(C(C)(C)CCCO)c(C)c5C(=O)C[C@]34C)O2)OC1=O`: the IC50 – broadly, the midpoint of a concentration-inhibition curve – was 12.8 µM.

`CC1=C(C)[C@@]2(C[C@@H](C)[C@H]3[C@H](C[C@@]4(C)c5ccc(C(C)(C)/C=C/CO)c(C)c5O[C@H](O)C[C@]34C)O2)OC1=O` had an IC50 of 19.6 µM.

The compound `CC1=C(C)[C@@]2(C[C@@H](C)[C@H]3[C@H](C[C@@]4(C)c5ccc(C(C)(C)/C=C/CO)c(C)c5C(=O)C[C@]34C)O2)OC1=O` yielded an IC50 of 2.2 µM.

Compound `CC1=C(C)[C@@]2(C[C@@H](C)[C@H]3[C@H](C[C@@]4(C)c5ccc(C(C)(C)/C=C/C(=O)O)c(C)c5[C@H](O)C[C@]34C)O2)OC1=O` yielded an IC50 of 4.5 µM.

Regarding `CC1=C(C)[C@@]2(C[C@@H](C)[C@H]3[C@H](C[C@@]4(C)c5ccc(C(C)(C)/C=C/C(=O)O)c(C)c5C(=O)C[C@]34C)O2)OC1=O`, 17.9 µM corresponded to half-maximal inhibition (IC50).
